The text below walks through data of patent US10995322B2, “Processes to prepare elongated 2-ketoacids and C5-C10 compounds therefrom via genetic modifications to microbial metabolic pathways” (priority 2016, dated 2021).

Series [1] has as its system CCCCCCC(=O)C(=O)O. Put plainly: purified protein, by the assay type. The conditions noted are these: pH 7.5; 30.0 °C.
The target in series [2] is Citrobacter freundii MGH 56 isopropylmalate synthase (Gene Accession No. KDF09799, SEQ ID NO: 1) variant 1409, H97A/S139G/N167G/P169A/G462D (Citrobacter freundii, UniProt A0A0D7LMP4, G462D/H97A/N167G/P169A/S139G). The following applies: pH 7.5, 30° C.
In series [3] the target is Citrobacter freundii MGH 56 isopropylmalate synthase (Gene Accession No. KDF09799, SEQ ID NO: 1) variant 1466, G210A/A214S/H97A/S139G/N167G/P169A/G462D (Citrobacter freundii, UniProt A0A0D7LMP4, A214S/G210A/G462D/H97A/N167G/P169A/S139G). Format: biochemical. The following applies: acetyl-CoA 0-10 mM, 2-ketooctanoate 2 mM, pH 7.5, 30° C.
In series [4] the target is Citrobacter freundii MGH 56 isopropylmalate synthase (Gene Accession No. KDF09799, SEQ ID NO: 1) variant 1467, G181A/A182G/G210A/A214S/H97A/S139G/N167G/P169A/G4 (Citrobacter freundii, UniProt A0A0D7LMP4, A182G/A214S/G181A/G210A/G462D/H97A/N167G/P169A/S139G). The conditions noted are these: pH 7.5, 30° C.
In series [5] the target is Enterobacter cloacae isopropylmalate synthase (Gene Accession No. WP_014830637, SEQ ID NO: 2) variant 1460, D348E/D350E/M353L/Q355N/H97A/S139G/N167G/P169A/G462D (Enterobacter cloacae, UniProt A0A0H3CGL5, D348E/D350E/G462D/H97A/M353L/N167G/P169A/Q355N/S139G). The following applies: pH 7.5, 30° C.
In series [6] the target is Enterobacter cloacae isopropylmalate synthase (Gene Accession No. WP_014830637, SEQ ID NO: 2) variant 1457, M255L/R260A/N264Q/H97A/S139G/N167G/P169A/G462D (Enterobacter cloacae, UniProt A0A0H3CGL5, G462D/H97A/M255L/N167G/N264Q/P169A/R260A/S139G). The conditions noted are these: pH 7.5, 30° C.
Series [7] deals with Enterobacter cloacae isopropylmalate synthase (Gene Accession No. WP_014830637, SEQ ID NO: 2) variant 1414, H97A/S139G/N167G/P169A/G462D (Enterobacter cloacae, UniProt A0A0H3CGL5, G462D/H97A/N167G/P169A/S139G). The following applies: pH 7.5, 30° C.
For series [8], the system named is Citrobacter freundii MGH 56 isopropylmalate synthase (Gene Accession No. KDF09799, SEQ ID NO: 1) variant 1467, G181A/A182G/G210A/A214S/H97A/S139G/N167G/P169A/G4 …. The following applies: 2-ketooctanoate.
Series [9] deals with CC(=O)SCCNC(=O)CCNC(=O)[C@H](O)C(C)(C)COP(=O)(O)OP(=O)(O)OC[C@H]1O[C@@H](n2cnc3c(N)ncnc32)[C@H](O)[C@@H]1OP(=O)(O)O. Briefly: purified protein, by the assay type. The following applies: pH 7.5; 30.0 °C.
Substrate in series [10]: CCCCCCC(=O)C(=O)O
Briefly: Kinetic evaluation of isopropylmalate synthase construct 614 (DTNB/CoASH assay). The following applies: other: 2-ketooctanoate 0-3.2 mM, acetyl-CoA 2 mM, pH 7.5, 30° C. Format: biochemical, E. coli. On the procedure:
(§1) Codons of 13 additional amino acids that included six histidine's were fused upstream of the codon of Met-1 of each IPMS gene sequence. Such a modification allowed expression of a His-tagged IPMS having 13 additional amino acids on the N-terminus. To the resulting modified gene, additional bases were added to introduce a NcoI and a SacI restriction site at the 5′- and 3′-end, respectively, for cloning purposes. The whole DNA sequence was chemically synthesized and cloned into the E. coli expression vector, pETDuet-1 at the NcoI and SacI sites by SGI Inc. His-tagged IPMSs were heterologously expressed in E. coli BL21 (DE3) cells and purified using Co-NTA chromatography. It is noted that none of the Sequence Listings included herein show the histidine-tag that is used, which in this case is […]
(§2) For expressing isopropylmalate synthases and its variants, competent cells of E. coli BL21(DE3) cells (acquired from EMD Biosciences) were transformed using standard procedures with the pETDuet expression vector containig their gene sequences. Cells harboring the expression vector were selected on LB agar plates containing 50 μg/mL of ampicillin. A starter culture was started by transferring a single colony of transformant into 50 mL of LB medium containing 100 μg/mL of ampicillin and incubated at 37° C. with shaking at 220 rpm overnight. On the next day, 7 mL of starter culture was inoculated into 800 mL of Terrific Broth (TB) and the culture was incubated at 37° C. until it reached an OD600 nm of 0.5. Isopropyl β-D-1-thiogalacto-pyranoside (IPTG) at a final concentration of 1 mM was added to induce the expression of the isopropylmalate synthase or its variant and the culture was transferred to a 15° C. incubator for 16 hours (h). At the end of 16 h, the culture was centrifuged at 8000 revolutions per minute (rpm) to pelletize the cells. The cell pellet was stored at −80° C. overnight before purification.
(§3) For isolation and purification of the enzyme, cell pellet taken from 400 mL of expression culture was suspended in B-PER reagent (Thermo Fisher Scientific, Inc., Rockford, Ill.) containing 1 μg/mL of DNAse (Thermo Fisher Scientific, Inc., Rockford, Ill.), 1 μg/mL of lysozyme (Thermo Fisher Scientific, Inc., Rockford, Ill.), 1 millimolar (mM) of dithiothreitol, and protease inhibitor cocktail (RPI Corp., Mount Prospect, Ill.). The suspension was rocked gently for 30 minutes (min) at room temperature and centrifuged at 15,000 times gravity (×g) for 20 min to pelletize cell debris. The supernatant was separated and incubated with 5 mL of Co-NTA resin (Thermo Fisher Scientific, Inc., Rockford, Ill.) that had been pre-equilibrated with an equilibration buffer (50 mM sodium phosphate, pH 8.0, containing 300 mM sodium chloride, 20 mM imidazole, 50 μL protease inhibitor cocktail, and 15% glycerol). Following an incubation period of 1 h at 4° C., the enzyme bound resin was washed with 5 volumes of equilibration buffer. Isopropylmalate synthase or its variants were eluted from the Co-NTA resin with equilibration buffer containing 200 mM imidazole. The eluted proteins were dialyzed against phosphate buffered saline and stored as a 20% glycerol solution at −20° C.
(§4) The evaluation of the LeuA variants was performed in two steps using the high-throughput enzyme assay described below. Initially, all the variants were tested for activity against a single high concentration of 2-KBut, 2-KHex, and 2-KOct. The spectrophotometric isopropylmalate synthase enzyme assay reported by Marcheschi et al (Marcheschi, R. J.; Li, H.; Zhang, K.; Noey, E. L.; Kim, S.; Chaubey, A.; Houk, K. N.; Liao, J. C. A synthetic recursive “+1” pathway for carbon chain elongation. ACS chemical biology 2012, 7, 689-697) was adapted into a high-throughput format in 96-well plates for the kinetic evaluation of the isopropylmalate synthase variants (shown in Table 1). […]

Substrate in series [11]: CC(=O)SCCNC(=O)CCNC(=O)[C@H](O)C(C)(C)COP(=O)(O)OP(=O)(O)OC[C@H]1O[C@@H](n2cnc3c(N)ncnc32)[C@H](O)[C@@H]1OP(=O)(O)O
Described as above. Format: biochemical, E. coli. The conditions noted are these: other: acetyl-CoA 0-10 mM, 2-ketooctanoate 2 mM, pH 7.5, 30° C. On the procedure:
as §1, §2, §3, §4

[12] abbreviates: acetyl-CoA 0-10 mM, 2-ketooctanoate 2 mM.
The mark [13] stands for this setting: 2-ketooctanoate 0-3.2 mM, acetyl-CoA 2 mM.

Sequence of Enterobacter cloacae isopropylmalate synthase (Gene Accession No. WP_014830637, SEQ ID NO: 2) variant 1414, H97A/S139G/N167G/P169A/G462D (A0A0H3CGL5 entry or part of it G462D/H97A/N167G/P169A/S139G): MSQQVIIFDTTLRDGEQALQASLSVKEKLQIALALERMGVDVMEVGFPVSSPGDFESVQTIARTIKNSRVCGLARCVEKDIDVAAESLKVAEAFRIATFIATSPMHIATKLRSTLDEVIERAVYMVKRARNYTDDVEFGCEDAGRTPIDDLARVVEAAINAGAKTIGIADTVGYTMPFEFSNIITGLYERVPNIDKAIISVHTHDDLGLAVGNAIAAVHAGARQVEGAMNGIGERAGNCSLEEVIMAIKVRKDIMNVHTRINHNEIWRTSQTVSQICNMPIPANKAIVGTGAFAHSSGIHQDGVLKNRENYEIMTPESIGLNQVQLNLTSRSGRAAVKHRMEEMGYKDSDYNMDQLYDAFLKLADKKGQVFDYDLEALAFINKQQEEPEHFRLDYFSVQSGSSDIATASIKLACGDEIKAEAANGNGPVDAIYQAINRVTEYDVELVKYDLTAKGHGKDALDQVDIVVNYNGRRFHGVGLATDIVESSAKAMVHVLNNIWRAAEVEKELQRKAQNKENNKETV
Sequence of Citrobacter freundii MGH 56 isopropylmalate synthase (Gene Accession No. KDF09799, SEQ ID NO: 1) variant 1409, H97A/S139G/N167G/P169A/G462D (A0A0D7LMP4 entry or part of it G462D/H97A/N167G/P169A/S139G): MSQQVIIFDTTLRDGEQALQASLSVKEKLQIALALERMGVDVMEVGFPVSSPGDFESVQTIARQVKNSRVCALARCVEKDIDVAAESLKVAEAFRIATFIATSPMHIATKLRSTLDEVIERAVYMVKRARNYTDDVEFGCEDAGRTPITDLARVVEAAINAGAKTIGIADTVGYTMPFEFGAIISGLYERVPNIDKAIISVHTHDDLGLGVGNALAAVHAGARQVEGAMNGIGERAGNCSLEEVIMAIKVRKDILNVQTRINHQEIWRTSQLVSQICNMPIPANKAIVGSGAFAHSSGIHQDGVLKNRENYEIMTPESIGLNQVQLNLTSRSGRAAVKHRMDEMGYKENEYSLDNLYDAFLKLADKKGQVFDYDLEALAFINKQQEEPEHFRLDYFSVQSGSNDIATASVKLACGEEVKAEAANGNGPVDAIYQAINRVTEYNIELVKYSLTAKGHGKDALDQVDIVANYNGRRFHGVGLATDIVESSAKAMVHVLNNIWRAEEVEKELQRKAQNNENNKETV
Sequence of Enterobacter cloacae isopropylmalate synthase (Gene Accession No. WP_014830637, SEQ ID NO: 2) variant 1460, D348E/D350E/M353L/Q355N/H97A/S139G/N167G/P169A/G462D (A0A0H3CGL5 entry or part of it D348E/D350E/G462D/H97A/M353L/N167G/P169A/Q355N/S139G): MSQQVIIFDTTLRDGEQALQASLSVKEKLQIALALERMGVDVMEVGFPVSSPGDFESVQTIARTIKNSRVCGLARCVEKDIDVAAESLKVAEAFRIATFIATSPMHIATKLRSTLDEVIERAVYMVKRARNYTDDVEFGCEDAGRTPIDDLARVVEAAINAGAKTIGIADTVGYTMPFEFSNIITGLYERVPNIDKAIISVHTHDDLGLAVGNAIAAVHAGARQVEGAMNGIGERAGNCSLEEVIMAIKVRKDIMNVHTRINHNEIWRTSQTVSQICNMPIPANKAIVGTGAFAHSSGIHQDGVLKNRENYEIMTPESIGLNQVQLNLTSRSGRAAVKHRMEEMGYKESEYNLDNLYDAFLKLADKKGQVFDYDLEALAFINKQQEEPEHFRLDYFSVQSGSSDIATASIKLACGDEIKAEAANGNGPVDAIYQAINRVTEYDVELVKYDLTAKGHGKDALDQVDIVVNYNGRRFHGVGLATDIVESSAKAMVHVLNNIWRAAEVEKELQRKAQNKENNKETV
Sequence of Citrobacter freundii MGH 56 isopropylmalate synthase (Gene Accession No. KDF09799, SEQ ID NO: 1) variant 1467, G181A/A182G/G210A/A214S/H97A/S139G/N167G/P169A/G4 (A0A0D7LMP4 entry or part of it A182G/A214S/G181A/G210A/G462D/H97A/N167G/P169A/S139G): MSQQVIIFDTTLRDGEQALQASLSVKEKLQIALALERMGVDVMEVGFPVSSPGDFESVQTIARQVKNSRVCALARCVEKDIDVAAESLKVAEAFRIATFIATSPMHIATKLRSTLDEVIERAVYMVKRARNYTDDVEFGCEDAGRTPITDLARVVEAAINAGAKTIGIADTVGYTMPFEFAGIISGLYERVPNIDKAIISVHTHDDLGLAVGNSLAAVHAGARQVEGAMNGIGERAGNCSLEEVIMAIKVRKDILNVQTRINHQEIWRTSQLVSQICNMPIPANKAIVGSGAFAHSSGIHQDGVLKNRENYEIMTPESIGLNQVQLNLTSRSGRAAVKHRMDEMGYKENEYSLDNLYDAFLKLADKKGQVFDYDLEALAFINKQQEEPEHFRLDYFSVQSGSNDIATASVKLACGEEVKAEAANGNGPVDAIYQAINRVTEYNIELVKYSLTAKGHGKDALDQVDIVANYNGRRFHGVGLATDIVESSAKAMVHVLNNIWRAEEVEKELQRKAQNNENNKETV
Sequence of Enterobacter cloacae isopropylmalate synthase (Gene Accession No. WP_014830637, SEQ ID NO: 2) variant 1457, M255L/R260A/N264Q/H97A/S139G/N167G/P169A/G462D (A0A0H3CGL5 entry or part of it G462D/H97A/M255L/N167G/N264Q/P169A/R260A/S139G): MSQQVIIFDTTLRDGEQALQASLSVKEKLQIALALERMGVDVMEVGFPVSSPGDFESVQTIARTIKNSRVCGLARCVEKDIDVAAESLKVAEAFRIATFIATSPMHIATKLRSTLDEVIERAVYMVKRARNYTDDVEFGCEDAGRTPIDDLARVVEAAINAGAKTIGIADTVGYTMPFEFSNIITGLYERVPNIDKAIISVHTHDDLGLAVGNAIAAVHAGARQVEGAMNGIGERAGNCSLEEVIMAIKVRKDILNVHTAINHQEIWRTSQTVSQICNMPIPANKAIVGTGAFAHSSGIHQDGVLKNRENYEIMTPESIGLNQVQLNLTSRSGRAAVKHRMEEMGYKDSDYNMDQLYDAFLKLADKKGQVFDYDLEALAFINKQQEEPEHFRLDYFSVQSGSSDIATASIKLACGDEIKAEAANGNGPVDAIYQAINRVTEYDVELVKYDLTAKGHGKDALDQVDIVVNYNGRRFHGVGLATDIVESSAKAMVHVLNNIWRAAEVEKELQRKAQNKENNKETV
Sequence of Citrobacter freundii MGH 56 isopropylmalate synthase (Gene Accession No. KDF09799, SEQ ID NO: 1) variant 1466, G210A/A214S/H97A/S139G/N167G/P169A/G462D (A0A0D7LMP4 entry or part of it A214S/G210A/G462D/H97A/N167G/P169A/S139G): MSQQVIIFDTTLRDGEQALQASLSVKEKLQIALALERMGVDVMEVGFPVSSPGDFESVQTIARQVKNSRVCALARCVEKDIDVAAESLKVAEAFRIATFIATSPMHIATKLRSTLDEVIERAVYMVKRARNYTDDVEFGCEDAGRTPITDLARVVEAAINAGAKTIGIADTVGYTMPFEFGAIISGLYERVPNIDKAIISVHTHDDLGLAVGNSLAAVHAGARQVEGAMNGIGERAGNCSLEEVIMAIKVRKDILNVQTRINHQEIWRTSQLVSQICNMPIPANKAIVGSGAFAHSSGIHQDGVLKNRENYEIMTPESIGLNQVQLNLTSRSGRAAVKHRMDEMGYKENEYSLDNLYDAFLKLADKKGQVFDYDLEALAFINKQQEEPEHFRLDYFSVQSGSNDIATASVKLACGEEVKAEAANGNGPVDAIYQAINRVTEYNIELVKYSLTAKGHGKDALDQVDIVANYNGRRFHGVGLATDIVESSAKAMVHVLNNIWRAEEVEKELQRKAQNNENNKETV

For the molecule “Enterobacter cloacae isopropylmalate synthase (Gene Accession No. WP_014830637, SEQ ID NO: 2) variant 1414, H97A/S139G/N167G/P169A/G462D (Enterobacter cloacae subsp. cloacae ATCC 13047; G462D/H97A/N167G/P169A/S139G)”, the Km in series [1] was 124 ± 8 µM.

Turning to `CC(=O)SCCNC(=O)CCNC(=O)[C@H](O)C(C)(C)COP(=O)(O)OP(=O)(O)OC[C@H]1O[C@@H](n2cnc3c(N)ncnc32)[C@H](O)[C@@H]1OP(=O)(O)O` [acetyl CoA, acetyl coenzyme A], the “kcat (acetyl CoA)” value in series [2] (setting [12]) turned out to be 0.118 ± 0.02 s⁻¹; in series [3] it was 0.4 ± 0.04 s⁻¹; in [4] (setting [12]), 5.2 ± 0.25 s⁻¹; in [5] (setting [12]), 3.43 ± 0.267 s⁻¹; in series [6] (setting [12]) it was 3.83 ± 0.083 s⁻¹; in series [7] (setting [12]) it was 2.35 ± 0.083 s⁻¹.

Turning to “Enterobacter cloacae isopropylmalate synthase (Gene Accession No. WP_014830637, SEQ ID NO: 2) variant 1460, D348E/D350E/M353L/Q355N/H97A/S139G/N167G/P169A/G462D (Enterobacter cloacae subsp. cloacae ATCC 13047; D348E/D350E/G462D/H97A/M353L/N167G/P169A/Q355N/S139G)”, the Km in series [1] turned out to be 170 ± 7 µM.

Take `CCCCCCC(=O)C(=O)O` [2-Ketooctanoic acid, 2-ketooctanoic acid]: the “kcat (2-ketooctanoic acid)” value is 0.205 ± 0.0083 s⁻¹ in series [2] (setting [13]); 2.47 ± 0.083 s⁻¹ in [4] (setting [13]); 3.5 ± 0.0583 s⁻¹ in series [5] (setting [13]); 4.12 ± 0.09 s⁻¹ in [6] (setting [13]); 2.8 ± 0.065 s⁻¹ in series [7] (setting [13]). Moreover, the “kcat/KM (2-ketooctanoic acid)” value in series [2] (setting [13]) came out at 2930 ± 300 M⁻¹ s⁻¹; in series [4] (setting [13]), 26450 ± 1970 M⁻¹ s⁻¹; in series [5] (setting [13]), 20620 ± 983 M⁻¹ s⁻¹; in series [6] (setting [13]) it was 23550 ± 983 M⁻¹ s⁻¹; in [7] (setting [13]), 22580 ± 983 M⁻¹ s⁻¹. In addition, the “% more efficient than construct 614 in capturing 2-ketooctanoate (kcat/KM)” value in series [8] (vs E. coli construct 614) is 30-40%. In addition, the “fold more efficient than parent construct 1409 in capturing 2-ketooctanoate (kcat/KM)” value in series [8] (vs parent 1409) is listed as 9 fold.

In the case of “Citrobacter freundii MGH 56 isopropylmalate synthase (Gene Accession No. KDF09799, SEQ ID NO: 1) variant 1409, H97A/S139G/N167G/P169A/G462D (Citrobacter freundii; G462D/H97A/N167G/P169A/S139G)”, the Km in series [1] amounted to 64 ± 9 µM; in [9], 450 ± 240 µM.

As to “Enterobacter cloacae isopropylmalate synthase (Gene Accession No. WP_014830637, SEQ ID NO: 2) variant 1457, M255L/R260A/N264Q/H97A/S139G/N167G/P169A/G462D (Enterobacter cloacae subsp. cloacae ATCC 13047; G462D/H97A/M255L/N167G/N264Q/P169A/R260A/S139G)”, the Km in series [1] came out at 176 ± 9 µM.

“Citrobacter freundii MGH 56 isopropylmalate synthase (Gene Accession No. KDF09799, SEQ ID NO: 1) variant 1467, G181A/A182G/G210A/A214S/H97A/S139G/N167G/P169A/G462D (Citrobacter freundii; A182G/A214S/G181A/G210A/G462D/H97A/N167G/P169A/S139G)”: the Km in [1] stood at 92 ± 9 µM.

B1: E. coli isopropylmalate synthase (LeuA, Gene Accession No. EG11226) variant 614, H97A/S139G/N167G/P169A/G462D (Escherichia coli K-12; … (protein)
chain: MSQQVIIFDTTLRDGEQALQASLSVKEKLQIALALERMGVDVMEVGFPVSSPGDFESVQTIARQVKNSRVCALARCVEKDIDVAAESLKVAEAFRIATFIATSPMHIATKLRSTLDEVIERAIYMVKRARNYTDDVEFGCEDAGRTPIADLARVVEAAINAGATTIGIADTVGYTMPFEFAGIISGLYERVPNIDKAIISVHTHDDLGLAVGNSLAAVHAGARQVEGAMNGIGERAGNCSLEEVIMAIKVRKDILNVHTAINHQEIWRTSQLVSQICNMPIPANKAIVGSGAFAHSSGIHQDGVLKNRENYEIMTPESIGLNQIQLNLTSRSGRAAVKHRMDEMGYKESEYNLDNLYDAFLKLADKKGQVFDYDLEALAFIGKQQEEPEHFRLDYFSVQSGSNDIATAAVKLACGEEVKAEAANGNGPVDAVYQAINRITEYNVELVKYSLTAKGHGKDALDQVDIVANYNGRRFHGVGLATDIVESSAKAMVHVLNNIWRAAEVEKELQRKAQHNENNKETV
notes: His-tag (13 additional amino acids, six histidines) (N); made in house; host or cells: E. coli BL21 (DE3)
B1: in series [10], the Km turned out to be 250 ± 35 µM, the kcat worked out at 4.53 ± 0.3 s⁻¹ and the kcat/Km came to 18600 ± 1950 M⁻¹ s⁻¹. In addition, in [11], the Km amounted to 830 ± 50 µM, the kcat was determined as 4.4 ± 0.133 s⁻¹ and the kcat/Km was 5370 ± 383 M⁻¹ s⁻¹.

In general, Km refers to the concentration of substrate that gives half-maximal velocity. One may read the kcat as the maximal rate divided by the concentration of active sites. A word on the kcat/Km: it is the second-order rate constant that governs catalysis at low substrate concentration.
